From patent US20100126880A1 (priority 2006, published 2010)

Tested on: dsDNA
Source text: Intercalation properties of EDOT-ND-Os were further studied by competitive displacement assay.

N[3-(imidazol-1-yl)propyl]-N′-[8-((2,3-dihydrothieno[3,4-b][1,4]dioxin-3-yl)methoxy)-3,6-dioxaoctyl]-1,4,5,8-naphthalenetetracarboxydiimide complex with Os(bpy)2Cl2 [EDOT-ND-Os]
binding constant: 8×10^4
